Reference: patent US10300104B2, “Multi-arm linker for treating rejection reaction in transplantation” (Immunwork Inc., priority 2015, dated 2019)

B1: tetrazine-conjugated scFv specific for human HLA-A1: scFv specific for human HLA-A1 conjugated at C-terminal cysteine with Mal-PEG4-tetrazine (protein)
scFv: DIQMTQSPSTLSASVGDRVTITCRASQSISNWLAWYQQKPGKAPNLLIYKASSLESGVPSRFSGSGSGTEFTLTISSLQPDDFATYYCQQYHDYSVTFGAGTKVEIKRGGGGSGGGGSGGGGSEVQLLESGGGLVQPGGSQRLSCVASGVPFSNYAMNWVRQAPGKGLEWVSSISGGGDRTFYADSVKGRFTISRDNSKNTLYLQMNSLGAGDTAVYYCAKTYYDFWSGYSRHLNSWGQGSLVTVSSGGGGSGGGGSC
B2: 3E10: phage-displayed human scFv clone specific for human HLA-A2, SEQ ID NO: 34 (protein)
scFv: DIQMTQSPSSLSASVGDRVTITCRASQDVFFFVAWYQQKPGKAPKLLIYGPPGLYSGVPSRFSGSGSGTDFTLTISSLQPEDFATYYCQQYFSFPITFGQGTKVEIKRGGGGSIEGRSGGGGSEVQLVESGGGLVQPGGSLRLSCAASGFTISNGGIHWVRQAPGKGLEWVASIWPSGGYTSYADSVKGRFTISADTSKNTAYLQMNSLRAEDTAVYYCARFGVNYHGIMDYWGQGTLVTVSS
modifications: phage-displayed scFv specific for HLA-A2, 3E10

Columns and labels:
[1] = test system: mTOR/p70S6K signaling pathway; test: Western blot analysis of mTOR/p70S6K signaling pathway in Jurkat T cells; assay type: cell-based, human; settings: 10 ng/ml IL2, 100 nM, 24 hours, FIG. 20A
Experimental: To examine the biological activities of these compounds, western blot analysis of mTOR/p70S6K signaling pathway and T-cell proliferation assay were performed with human Jurkat T cells. T-cell viability and proliferation were assessed using alamarBlue® cell viability reagent (Invitrogen).
For the western blot analysis of mTOR/p70S6K signaling pathway, briefly, Jurkat T cell were seeded into 6-cm cell culture dish in RPM11640 medium containing 10% fetal bovine serum.
Insoluble material was collected by centrifugation at 14,000×g for 20 minutes at 4° C. The cell lysate samples were separated on 10% SDS-PAGE gels and transferred to a PVDF membrane (Millipore). The membrane blots were blocked in PBS containing 5% BSA for 1 hour at room temperature, and incubated with primary antibodies, anti-phospho-p70S6K antibody (Cell Signaling Technology, Danvers, USA) and anti-p70S6K antibody (Cell Signaling Technology), overnight at 4° C. […] Then the membranes were washed three times with TBST, and immunoreacted bands were detected with ECL™ western blotting detection reagents (Millipore) and exposed on Fujifilm (Tokyo, Japan). Relative quantification of ECL signals on X-ray films were analyzed by using Image J (NIH, Bethesda, Md., USA).

scFv specific for CTLA-4 = test: Western blot of recombinant CTLA-4 with scFv specific for CTLA-4; assay type: binding; settings: scFv specific for CTLA-4 1 μg/ml; FIG. 14C
Experimental: Recombinant CTLA-4 protein was analyzed and detected using western blotting. Briefly, 50 μl of the purified CTLA-4 protein was electrophoresed on the 12% SDS-PAGE gel (lane 2) and electroblotted over to a PDVF membrane. The protein (CTLA-4)-IgG1Fc-(scFv α HLA-A1) was used as a positive control (lane 1). After blocking with 5% BSA in TBST at room temperature for 1 hour, the diluted scFv specific for CTLA-4 (1 μg/ml) was added and incubated with the membrane overnight at 4° C. with gentle shaking. The membrane was rinsed and washed 3 times with TBST. The diluted HRP-conjugated protein L (1:5000) was added and incubated with the membrane at room temperature for 1 hour, and the rinse and wash cycle was repeated with TBST for 3 times. The membrane was then incubated with HRP substrate solution for 20 minutes before being exposed to the photographic film.

PD1-IgG1.Fc = molecular target: T1, PD1-IgG1.Fc (Homo sapiens, UniProt Q15116); test: ELISA of recombinant PD-L1 binding to PD1-IgG1.Fc; settings: plate coated with PD-L1 50 μg/ml; PD1-IgG1.Fc 50 μg/ml; FIG. 14D
T1 construct: made in house; host or cells: Expi293F
T1 sequence (Q15116 with tags, fused parts or gaps): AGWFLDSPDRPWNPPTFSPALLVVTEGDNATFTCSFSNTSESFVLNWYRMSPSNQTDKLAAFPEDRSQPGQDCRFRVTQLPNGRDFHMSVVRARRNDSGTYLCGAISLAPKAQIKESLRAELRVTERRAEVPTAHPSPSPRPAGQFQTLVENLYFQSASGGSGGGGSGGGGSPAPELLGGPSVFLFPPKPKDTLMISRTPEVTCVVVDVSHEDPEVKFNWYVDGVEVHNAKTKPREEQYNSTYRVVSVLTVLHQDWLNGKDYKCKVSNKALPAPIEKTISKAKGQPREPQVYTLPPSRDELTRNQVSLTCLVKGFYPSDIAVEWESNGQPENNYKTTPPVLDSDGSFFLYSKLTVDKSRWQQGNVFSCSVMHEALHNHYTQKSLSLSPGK
Experimental: Binding activity of recombinant PD-L1 protein was assayed with ELISA using a 96-well plate coated with recombinant PD-L1 protein in 50 μg/ml concentration, 100 μl per well. After the excess PD-L1 was washed off and the solid phase blocked, 100 μl per well of PD1-IgG1.Fc at 50 μg/ml was added. The bound PD1-IgG1.Fc was determined by HRP-conjugated goat anti-human IgG.Fc. 50 μl of TMB substrate was added for color development. The reaction was stopped by 50 μl of 1M HCl. Absorbance at 450 nm was measured with a plate reader. Each bar represents the mean OD450 value of duplicate samples.

recombinant HLA-A1 = molecular target: T2, recombinant HLA-A1 (Homo sapiens, UniProt P04439); test: ELISA of tetrazine-conjugated scFv specific for human HLA-A1; assay type: binding; settings: FIG. 17B
T2 construct: made in house; host or cells: Expi293F
Text: The purity of tetrazine-conjugated scFv specific for human HLA-A1 was identified through Coomassie blue staining of 12% SDS-PAGE. FIGS. 17A and 17B show, respectively, the mass spectrometric and ELISA analysis of tetrazine-conjugated scFv specific for human HLA-A1, in which unmodified scFv specific for human HLA-A1 was used as a positive control.

human HLA-A2 = molecular target: T3, human HLA-A2 (Homo sapiens, UniProt P04439); test: Single colony ELISA of phage-displayed scFvs specific for human HLA-A2; assay type: binding; settings: HLA-A2 0.5 μg/100 μl per well; FIG. 16B
T3 construct: made in house; host or cells: Expi293F
Experimental: E. coli strain ER2738 infected with single-clonal phages each harboring a selected scFv gene in its phagemid was grown in the mid-log phase in 2YT broth (16 g/l tryptone, 10 g/l yeast extract, 5 g/l NaCl, pH 7.0) with 100 μg/ml ampicillin in deep well at 37° C. with shaking. After the broth reached an OD600 of 1.0, IPTG was added to a final concentration of 1 μg/ml. The plates were incubated at 37° C. overnight under rigorously shaking. Thereafter, the plates were centrifuged at 4,000 g for 15 minutes at 4° C.
For soluble scFv binding test, ELISA was carried out. Briefly, 96-well Maxisorp 96-well plate (Nunc) was coated with human HLA-A2 (0.5 μg/100 μl PBS per well) or two negative control antigens, human heat shock protein 70 (Hsp 70) and RSV-IgG1.Fc fusion protein (prepared by our laboratory), for 18 hours with shaking at 4° C. After being treated with 300 μl of blocking buffer for 1 hour, 100 μl of secreted scFv in the supernatant was mixed with 100 μl of blocking buffer and then added to the coated plate for another 1 hour. Goat anti-E-tag antibody (conjugated with HRP, 1:4000, Cat. No. AB19400, Abcam) was added to the plate for 1 hour. TMB substrate (50 μl per well) was added to the wells and the absorbance at 450 nm was measured after reactions were stopped by adding 1N HCl (50 μl per well).

Molecule	mTOR/p70S6K signally pathway in the treated T cells, compared with unmodified sirolimus [1]	phosphorylated level of p70S6K [1]	further results
CO[C@H]1C[C@@H]2CC[C@@H](C)[C@@](O)(O2)C(=O)C(=O)N2CCCC[C@H]2C(=O)O[C@H]([C@H](C)C[C@@H]2CC[C@@H](OC(=O)CNC(=O)CN)[C@H](OC)C2)CC(=O)[C@H](C)/C=C(\C)[C@@H](O)[C@@H](OC)C(=O)[C@H](C)C[C@H](C)/C=C/C=C/C=C/1C [sirolimus-diGly, sirolimus di-glycine]	blocked	decreased	
CO[C@H]1C[C@@H]2CC[C@@H](C)[C@@](O)(O2)C(=O)C(=O)N2CCCC[C@H]2C(=O)O[C@H]([C@H](C)C[C@@H]2CC[C@@H](OC(=O)CN)[C@H](OC)C2)CC(=O)[C@H](C)/C=C(\C)[C@@H](O)[C@@H](OC)C(=O)[C@H](C)C[C@H](C)/C=C/C=C/C=C/1C [sirolimus-Gly, Sirolimus monoglycine]	blocked	decreased	
recombinant human CTLA-4: recombinant human CTLA-4 (SEQ ID NO: 30) with GGGGSGGGGS linker and terminal cysteine			binding by the scFv specific for CTLA-4 (western blot) (scFv specific for CTLA-4): specifically bound
recombinant human PD-L1: recombinant human PD-L1 (SEQ ID NO: 31) with GGGGSGGGGS linker and terminal cysteine			binding to recombinant PD1-IgG1.Fc (ELISA) (PD1-IgG1.Fc): specifically bound
B1			binding to recombinant HLA-A1 (ELISA) (recombinant HLA-A1): bound
B2			OD450 of binding to human HLA-A2 (human HLA-A2): 1.3
